In patent publication US8183046B2, “Temperature resistant pH buffers for use at low temperatures” (The Board of Trustees of the University of Illinois, priority 2007, dated 2012):
Values joined by “and” are separate entries in the source; they are usually repeats but may differ in a detail not shown here. Equal entries are not always repeated. One block for each molecule: values may come before it. Residues, ends and D or L forms follow the SMILES beside them.

Assays:
[1] = cited from earlier work; for Effective pH Range: buffer without pK index; for pKa values for the single buffers, second value: Table 5, in parentheses; for Effective pH Range (pK1): line labelled pK1; for Effective pH Range (pK2): line labelled pK2; for Effective pH Range (pK3): line labelled pK3
[2] = Temperature dependence of pH of buffer solutions, ratiometric UV-vis (A418/A623) with indicator 1; format: physicochemical; conditions: for pH at plateau: plateau 150 K to 90 K; for pH at 298 K: single buffers; for direction of pH change as the solution is equilibrated at lower temperatures: FIG. 4, 50 mM buffer solutions containing 75% glycerol
[3] = pH-sensitive dye; cited from earlier work
[4] = cited from earlier work
[5] = Freeze-thaw storage stability of oxacillin solutions in various buffers, HPLC; format: physicochemical
[6] = cited from earlier work; remark: listed apart in the source
[7] = Table 3, change in pH with decreasing temperature, pH 6.1 at 298 K

Molecule: NC(=O)CNCCS(=O)(=O)O [ACES]
- Effective pH Range ([1]; Table 2): 6.1–7.5

Molecule: CC(C)(N)CO [AMP, 2-amino-2-methyl-1-propanol]
- Effective pH Range ([1]; Table 2): 8.7–10.4

Molecule: CC(N)(CO)CO [AMPD, 2-amino-2-methyl-1,3-propanediol]
- Effective pH Range ([1]; Table 2): 7.8–9.7

Molecule: CC(C)(CO)NCC(O)CS(=O)(=O)O (centres unmarked) [AMPSO]
- Effective pH Range ([1]; Table 2): 8.3–9.7

- ΔpH [2, 7]: +2.1
- pH at plateau ([2]; Table 3, pH 6.1 at 298 K): 8.2
- pH at 298 K ([2]; Table 3): 6.1
Molecule: OCC(CO)(CO)NCCCNC(CO)(CO)CO [BIS-TRIS propane, 1,3-bis[tris(hydroxymethyl)methylamino]propane]
- Effective pH Range ([1]; Table 2): 6.3–9.5
- pKa at 25° C., pK2 ([1]; Table 2, pK2 or second value printed in the cell): 9.00
- pKa values for the single buffers, second value [1]: 9.0

Molecule: Cc1c(C2(c3cc(Br)c(O)c(Br)c3C)OS(=O)(=O)c3ccccc32)cc(Br)c(O)c1Br [Bromocresol green]
- pKa [3]: 4.6

Molecule: O=S(=O)(O)CCCCNC1CCCCC1 [CABS]
- Effective pH Range ([1]; Table 2): 10.0–11.4

Molecule: O=S(=O)(O)CC(O)CNC1CCCCC1 (centres unmarked) [CAPSO]
- Effective pH Range ([1]; Table 2): 8.9–10.3

Molecule: O=S(=O)(O)CCCNC1CCCCC1 [CAPS]
- Effective pH Range ([1]; Table 2): 9.7–11.1

Molecule: O=S(=O)(O)CCNC1CCCCC1 [CHES]
- Effective pH Range ([1]; Table 2): 8.6–10.0

Molecule: O=S(=O)(O)CC(O)CN(CCO)CCO (centres unmarked) [DIPSO]
- Effective pH Range ([1]; Table 2): 7.0–8.2

Molecule: O=S(=O)(O)CCCCN1CCN(CCO)CC1 [HEPBS]
- Effective pH Range ([1]; Table 2): 7.6–9.0

Molecule: O=P(O)(O)O [KPhosphate, potassium phosphate]
- ΔpH over a 208 K range ([2]; 298 K to 90 K, 50 mM buffer, pH 7.0): −0.50
- direction of pH change as the solution is equilibrated at lower temperatures [2]: decreases
- pH at plateau ([2]; Table 3, pH 7.0 at 298 K): 6.5
- pH at plateau ([2]; Table 3, pH 8.0 at 298 K): 7.3
- pH at 298 K ([2]; Table 3): 8.0 and 7.0
- ΔpH ([2]; pH 7): −0.5
- ΔpH ([2]; pH 8): −0.7
- pH change ([2]; starting from pH 8.0, indicator 1): ~−0.7 units

- ΔpH ([2]; Table 3, change in pH with decreasing temperature, pH 6.0 at 298 K): +1.4
- pH at plateau ([2]; Table 3, pH 6.0 at 298 K): 7.4
- pH at 298 K ([2]; Table 3): 6.0
Molecule: O=S(=O)(O)CCN1CCOCC1 [MES, 2-morpholinoethanesulfonic acid]

- direction of pH change as the solution is equilibrated at lower temperatures [2]: increases
- ΔpH [2, 7]: +1.6
- pH at plateau ([2]; Table 3, pH 6.1 at 298 K): 7.7
- pH at 298 K ([2]; Table 3): 6.1
- increase of pH upon lowering the temperature ([2]; room temperature to ~170 K, 50 mM, 75% glycerol): about 1.6 pH unit
- degree of pH change with temperature, 50% glycerol versus 75% glycerol ([2]; sample containing 50% glycerol, FIG. 6): somewhat larger
Molecule: O=S(=O)(O)CCCN1CCOCC1 [MOPS, 3-N-morpholino propansulfonic acid]
- Effective pH Range ([1]; Table 2): 6.5–7.9

Molecule: CC(=O)[O-].[Na+] [Na-Acetate, sodium acetate]
- pH at plateau ([2]; Table 3, pH 5.0 at 298 K): 5.4
- pH at 298 K ([2]; Table 3): 5.0
- ΔpH ([2]; pH 5): +0.4

Molecule: O=S(=O)(O)CCN1CCN(CCS(=O)(=O)O)CC1 [PIPES]
- Effective pH Range ([1]; Table 2): 6.1–7.5

Molecule: O=S(=O)(O)CC(O)CN1CCN(CC(O)CS(=O)(=O)O)CC1 (centres unmarked) [POPSO]
- Effective pH Range ([1]; Table 2): 7.2–8.5

Molecule: O=S(=O)(O)CCCCNC(CO)(CO)CO [TABS]
- Effective pH Range ([1]; Table 2): 8.2–9.6

Molecule: O=S(=O)(O)CC(O)CNC(CO)(CO)CO (centres unmarked) [TAPSO]
- Effective pH Range ([1]; Table 2): 7.0–8.2

Molecule: O=S(=O)(O)CCCNC(CO)(CO)CO [TAPS]
- Effective pH Range ([1]; Table 2): 7.7–9.1

Molecule: O=C(O)C(O)C(O)C(=O)O (centres unmarked) [Tartrate]
- pKa values for the single buffers, second value [1]: (3.00, 4.40)^1

- direction of pH change as the solution is equilibrated at lower temperatures [2]: increases
- ΔpH ([2]; Table 3, change in pH with decreasing temperature, pH 7.0 at 298 K): +2.2
- pH at plateau ([2]; Table 3, pH 7.0 at 298 K): 9.2
- pH at 298 K ([2]; Table 3): 7.0
Molecule: NC(CO)(CO)CO [Trizma, 2-Amino-2-(hydroxymethyl)-1,3-propanediol]
- Effective pH Range ([1]; Table 2): 7.5–9.0

Molecule: CC(=O)O [acetate]
- direction of pH change as the solution is equilibrated at lower temperatures [2]: increases

Molecule: N [ammonium hydroxide]
- Effective pH Range ([1]; Table 2): 8.8–9.9

Molecule: O=C(O)O [carbonate]
- Effective pH Range (pK1) ([1]; Table 2): 6.0–8.0
- Effective pH Range (pK2) ([1]; Table 2): 9.5–11.1

Molecule: O=C(O)CC(O)(CC(=O)O)C(=O)O [citrate]
- Effective pH Range (pK1) ([1]; Table 2): 2.2–6.5
- Effective pH Range (pK2) ([1]; Table 2): 3.0–6.2
- Effective pH Range (pK3) ([1]; Table 2): 5.5–7.2

Molecule: COc1cccc2c1C(=O)c1c(O)c3c(c(O)c1C2=O)C[C@@](O)(C(=O)CO)C[C@@H]3O[C@H]1C[C@H](N)[C@H](O)[C@H](C)O1 [doxorubicin]
- therapeutic activity upon repeated freeze-thaw treatments ([4]; freeze (−20° C.)-thaw (+37° C.), correlates with hydrolysis of the aminoglycoside bond): gradually reduces therapeutic activity
- optimum pH for storage stable, ready-to-use formulations ([4]; storage at 4-8° C.): 3.0

Molecule: NCC(=O)O [glycine]
- Effective pH Range (pK1) ([1]; Table 2): 2.2–3.6
- Effective pH Range (pK2) ([1]; Table 2): 8.8–10.6

Molecule: NCC(=O)NCC(=O)O [glycylglycine] (H-Gly-Gly-OH)
- Effective pH Range (pK1) ([1]; Table 2): 2.5–3.8
- Effective pH Range (pK2) ([1]; Table 2): 7.5–8.9
- pKa at 25° C., pK1 ([1]; Table 2, pK1 or first value printed in the cell): 3.14

Molecule: c1c[nH]cn1 [imidazole]
- Effective pH Range ([1]; Table 2): 6.2–7.8

Molecule: O=C(O)CC(O)C(=O)O (centres unmarked) [malate]
- Effective pH Range (pK1) ([1]; Table 2): 2.7–4.2
- Effective pH Range (pK2) ([1]; Table 2): 4.0–6.0

- hydrolysis of the antibiotic on storage, versus HEPES:KPhosphate (60:40) buffered solution ([5]; 200 μM in 50 mM BisTris Propane buffer pH 7.0, 193 K, freeze-thaw over eight days): greater hydrolysis
- pH-induced hydrolysis under freeze-thaw storage conditions ([5]; 200 μM in 50 mM HEPES:KPhosphate (60:40) pH 7.0, 193 K, eight days): reduced
Molecule: Cc1onc(-c2ccccc2)c1C(=O)N[C@@H]1C(=O)N2[C@@H]1SC(C)(C)[C@@H]2C(=O)O [oxacillin]

Molecule: C1CNCCN1 [piperazine]
- Effective pH Range (pK1) ([1]; Table 2): 5.0–6.0
- Effective pH Range (pK2) ([1]; Table 2): 9.5–9.8

Molecule: O=P(O)(O)OP(=O)(O)O [pyrophosphate]
- Effective pH Range ([1]; Table 2): 7.0–9.0

Molecule: O=C(O)CNC(CO)(CO)CO [tricine]
- Effective pH Range ([1]; Table 2): 7.4–8.8

Molecule: phosphate
- Effective pH Range (pK1) ([1]; Table 2): 1.7–2.9
- Effective pH Range (pK2) ([1]; Table 2): 5.8–8.0
- Effective pH Range (pK3) ([1]; Table 2): 11.5–13.0

Molecule: thrombin-activated porcine factor VIII: thrombin-activated porcine factor VIII, heterotrimeric coagulation protein
- coagulation activity between pH 7 and 8 ([6]; between pH 7 and 8): sharp decline
- state of the protein at pH 6.0 ([6]; pH 6.0 at 4° C. or 20° C.): stable, active, heterotrimer
